# Results taken from patent US20240398822A1, “METHODS AND COMPOSITIONS FOR TREATING AND MANAGING ALZHEIMER'S DISEASE” (Pharmatrophix, Inc., priority 2021, published 2024).
# Assay: Phase 1 SAD/MAD pharmacokinetics
# Type: in vivo
# Description: The phase 1 study was placebo controlled and double blinded and included 52 subjects in SAD studies and 20 subjects in MAD studies.
smiles,measurement,setting,value
"NCCN1CCOCC1 [aminoethyl morpholine metabolite, aminoethyl morpholine]",food effect,"elderly adults, fed versus fasted",apparent food effect
same,pharmacokinetics after single oral doses,exposure proportional to dose over 100-900 mg of free base,linear pharmacokinetics
same,time to reach steady state upon multiple dosing,in vivo,approximately 5 days post dose
